Test results taken from patent US20060111289A1, “Compositions and methods of using Alpha-fetoprotein growth inhibitory peptides” (Serometrix, LLC,, priority 2004, published 2006).
Entries after “also recorded” stand apart in the source; their conditions may differ. Where two headings read alike, the source gives them in different places. Where a SMILES comes first, the peptide text is derived from it.

Columns and labels:
[1] = test system: IGROV1; conditions: IGROV1 (ovary, AC); 2-Day Assay; Conc. 10^−1 Molar
[2] = test system: ACHN; conditions: ACHN (kidney, renal CA); 2-Day Assay; Conc. 10^−2 Molar
[3] = test system: Colo-205; conditions: Colo-205 (colon, AC)
[4] = test system: human kidney tumor cell line
[5] = test system: MDA-MB-435; conditions: MDA-MB-435 (breast, AC); 2-Day Assay; Conc. 10^−1 Molar
[6] = test system: K-562; conditions: K-562 (white blood cell, leukemia); 6-Day Assay; Conc. 10^−7 Molar
[7] = test system: SF-539; conditions: SF-539 (central nervous system, CA)
[8] = test system: CCRF-CEM; conditions: CCRF-CEM (white blood cell, leukemia)
[9] = test system: Molt-4; conditions: Molt-4 (white blood cell, leukemia); 2-Day Assay; Conc. 10^−2 Molar
[10] = test system: T-47D; conditions: T-47D (breast, AC)
[11] = test system: UACC-257; conditions: UACC-257 (melanoma, squamous); 2-Day Assay; Conc. 10^−2 Molar
[12] = test system: MCF-7; conditions: MCF-7 (breast, AC); 2-Day Assay; Conc. 10^−2 Molar
[13] = test system: OVCAR-3; conditions: OVCAR-3 (ovary, AC); 2-Day Assay; Conc. 10^−2 Molar
[14] = test system: RXF-393; conditions: RXF-393 (kidney, renal CA); 2-Day Assay; Conc. 10^−1 Molar
[15] = test system: HCC-299; conditions: HCC-299 (colon, AC); 2-Day Assay; Conc. 10^−1 Molar
[16] = test system: NCI-H460; conditions: NCI-H460 (non-small cell lung, CA); 2-Day Assay; Conc. 10^−2 Molar
[17] = test system: SK-MeL-5; conditions: SK-MeL-5 (melanoma, squamous)
[18] = test system: U-251; conditions: U-251 (central nervous system, CA); 2-Day Assay; Conc. 10^−2 Molar
[19] = test system: MDA-MB-231; conditions: MDA-MB-231 (breast, AC); 6-Day Assay; Conc. 10^−7 only Molar
[20] = test system: NCI-H226; conditions: NCI-H226 (non-small cell lung, CA)
[21] = test system: 60 cancer cell lines; test: NCI screen of 60 cancer cell lines, 2 day versus 6-day sulforhodamine assay; assay type: cell-based, human; conditions: nine different cancer cell types
Text: These findings detailed the in vitro results of the GIP challenges against 60 different cell culture lines representing a variety of human cancers.

[22] = test system: DU-145; conditions: DU-145 (prostate, AC); 2-Day Assay; Conc. 10^−1 Molar
[23] = test system: PC-3; conditions: PC-3 (prostate, AC); 2-Day Assay; Conc. 10^−1 Molar
[24] = test system: MCF-7 and GI-101 cells; test: ATP luminescence cytostatic assay (6 days); assay type: cell-based, human; conditions: peptide 10^−12 to 10^−8 M
Text: FIG. 2 presents exemplary data for both in vivo and in vitro growth suppressive activities of the GIP-derived P149 and control peptides are depicted in GI-101 human ductal breast carcinoma and in MCF-7 human glandular breast carcinoma. • Panels A and A2: GI-101 and MCF-7 xenograft in nude mice administered P149 time-release pellets for 60 days and 30 days, respectively (N=5 mice/group). • Panels B and B2: GI-101 and MCF-7 in cell cultures treated with P149 and P187 at concentrations from 10-8 to 10-12 M for 6 days and assayed by ATP luminescence reagent employing a luciferin-luciferase system. The ATP assay, used to distinguish between cytostasis versus cytotoxicity, was used to confirm that P149 was cytostatic in its cell inhibitory activity at 6 days (see text for details).
In order to confirm whether P149 was indeed cytostatic, and not cytotoxic, an ATP-based cytostatic assay was performed which measures the decrease in cytosolic ATP during drug (i.e., for example, GIP peptide) treatment. This ATP luminescence assay has long been employed to distinguish between cytostatic versus cytotoxic chemotherapeutic sensitivity of drugs. […] After incubation of the cell cultures for 6 days, cytosolic ATP was extracted, stabilized, and quantitated from a standard curve produced from Berthold LB-96P luminometer readings using a luciferin-luciferase counting reagent.

[25] = test system: 6WI-1 mammary tumor cells; test: 6WI-1 mammary tumor in 15-day old mouse pups (6 day assay); assay type: in vivo; conditions: mouse, in vivo
Text: As an alternative model of the 6WI-I mammary tumor in adult mice, an inocula of 1×10^6 tumor cells injected into 15-day old mouse pups provided a 6 day rather than a 12 day assay and replicated the same tumor growth suppression by GIP.

Compound: CC[C@H](C)[C@H](NC(=O)[C@H](CS)NC(=O)[C@H](CC(C)C)NC(=O)[C@H](Cc1c[nH]cn1)NC(=O)CNC(=O)[C@@H](NC(=O)[C@@H](NC(=O)[C@@H](NC(=O)[C@H](CC(=O)O)NC(=O)[C@H](C)NC(=O)[C@H](C)NC(=O)CNC(=O)[C@H](CCC(=O)O)NC(=O)CNC(=O)[C@H](CS)NC(=O)[C@H](C)NC(=O)[C@H](CC(C)C)NC(=O)[C@H](CC(C)C)NC(=O)[C@H](CCCCN)NC(=O)[C@H](CC(=O)O)NC(=O)[C@H](CCC(=O)O)NC(=O)[C@H](CO)NC(=O)[C@@H](N)CC(C)C)[C@@H](C)CC)[C@@H](C)CC)[C@@H](C)CC)C(=O)N[C@@H](CCCNC(=N)N)C(=O)N[C@@H](Cc1c[nH]cn1)C(=O)N[C@@H](CCC(=O)O)C(=O)N[C@@H](CCSC)C(=O)N[C@H](C(=O)N1CCC[C@H]1C(=O)N[C@H](C(=O)N[C@@H](CC(N)=O)C(=O)N1CCC[C@H]1C(=O)NCC(=O)N[C@H](C(=O)O)C(C)C)C(C)C)[C@@H](C)O [P149] (H-LSEDKLLACGEGAADIIIGHLCIRHEMTPVNPGV-OH)
- % Growth Inhibition [1]: 10%
- % Growth Inhibition [2]: 20%
- % Growth Inhibition ([3]; 2-Day Assay, Conc. 10^−2 Molar): 10%
- % Growth Inhibition ([3]; 6-Day Assay, Conc. 10^−5 Molar): 10%
- % Inhibition Of Activity: Kidney tumor growth [4]: 70%
- % Growth Inhibition [5]: 20%
- % Growth Inhibition [6]: 45%
- % Growth Inhibition ([7]; 2-Day Assay, Conc. 10^−2 Molar): 10%
- % Growth Inhibition ([7]; 6-Day Assay, Conc. 10^−5 Molar): 15-20%
- % Growth Inhibition ([8]; 2-Day Assay, Conc. 10^−2 Molar): 5%
- % Growth Inhibition ([8]; 6-Day Assay, Conc. 10^−5 Molar): 5-10%
- % Growth Inhibition [9]: 5%
- % Growth Inhibition ([10]; 2-Day Assay, Conc. 10^−2 Molar): 10%
- % Growth Inhibition ([10]; 6-Day Assay, Conc. 10^−5 Molar): 25%
- % Growth Inhibition [11]: 20%
- % Growth Inhibition [12]: 20%
- % Growth Inhibition [13]: 20%
- % Growth Inhibition [14]: 30%
- % Growth Inhibition [15]: 20%
- % Growth Inhibition [16]: 30%
- % Growth Inhibition ([17]; 2-Day Assay, Conc. 10^−2 Molar): 5%
- % Growth Inhibition ([17]; 6-Day Assay, Conc. 10^−5 Molar): 10%
- % Growth Inhibition [18]: 15%
- % Growth Inhibition [19]: 80%
- % Growth Inhibition ([20]; 2-Day Assay, Conc. 10^−2 Molar): 5%
- % Growth Inhibition ([20]; 6-Day Assay, Conc. 10^−5 Molar): 5-10%
- Number of the 60 cancer cell lines against which the peptide appeared cytostatic (not cytotoxic) [21]: 38
- % Growth Inhibition [22]: 10%
- % Growth Inhibition [23]: 5%

Compound: LSENKLLACGEGAANIIIGHLCIRHEMTPVNPGV (listed as Homo sapiens) [P187]
- Growth inhibition / decrease in cytosolic ATP in the ATP luminescence assay [24]: significantly different; also recorded: equally responsive as P149 at 10^−8 M
- Growth inhibitory potency in the mouse pup model compared with P149 [25]: slightly less growth inhibitory potency
